Experimental data reported in publication PMC6407204, “Oral administration of the cannabigerol derivative VCE-003.2 promotes subventricular zone neurogenesis and protects against mutant huntingtin-induced neurodegeneration” (Translational Neurodegeneration, 2019).
Entries after “also recorded” stand apart in the source; their conditions may differ.

System: S. typhimurium TA98 and S. typhimurium TA100
Test: AMES reverse mutation assay, overall statement
Type: cell-based
Conditions: absence and presence of S9 metabolic activation
Experimental: Supplementary file 40035_2019_148_MOESM4_ESM.pdf: Additional file 4: AMES Data Summary. AMES Experimental Procedure. Approximately ten million bacteria are exposed in triplicate to VCE-003-.2 (7.8, 15.6, 31.3, 62.5, 125 and 250 μg/ml), a negative control (vehicle) and a positive control for 90 min in medium containing a low concentration of histidine (sufficient for about 2 doublings). The cultures were then diluted into indicator medium lacking histidine and dispensed into 48 wells of a 384 well plate (micro-plate format, MPF). The plate was incubated for 48 h at 37 °C, and the number of wells showing growth were counted and compared to the vehicle control. An increase in the number of colonies of at least two-fold over baseline (mean + SD of the vehicle control) and a dose response indicates a positive response. […] Where indicated, S9 fraction from the livers of Aroclor 1254-treated rats was included in the incubation at a final concentration of 4.5%. An NADPH-regenerating system is also included to ensure a steady supply of reducing equivalents. The strains used in this study were S. typhimurium TA98 (hisD3052, rfa, uvrB/pKM10 for detection of frame-shift mutations) and S. typhimurium TA100 ([…], rfa, uvrB/pKM101 for detection of base-pair substitutions). VCE-003.2 was assessed for its mutagenic potential in the AMES reverse mutation assay. […]

## CCCCCC1=C(NCC)C(=O)C(CC=C(C)CCC=C(C)C)=C(O)C1=O [VCE-003.2, 2-(3,7-dimethyl-octa-2,6-dienyl)-6-ethylamino-3-hydroxy-5-pentyl-(1,4) benzoquinone]
  genotoxicity in AMES assay (in words): not genotoxic; also recorded: negative for genotoxicity
